IC50 and inhibition data for 17 compounds are collected here from patent US11020398B2, “Amino-pyrrolopyrimidinone compounds and methods of use thereof” (ArQule, Inc., priority 2016, dated 2021).

The term pIC50 denotes the IC50 on a negative log10 scale, so that one unit is a factor of ten. Low values mean a high IC50, high ones a low IC50.

Experiment [1] has as its target full-length activated BTK (wildtype) (Homo sapiens (Human), UniProt Q06187). In words: AlphaScreen assay, wild-type BTK. It counts as biochemical. The settings on record: for inhibition at 10 µM: read-out: BTK % @ 10 uM, @ 10 uM. As to the method:
(§1) The activated BTK was frozen in 50 μl aliquots (125-150 μg/ml).
(§2) BTK activity was assayed using a PLCγ2-derived biotinylated peptide substrate (biotin-[…]-OH) and AlphaScreen™ (Amplified Luminescent Proximity Homogeneous Assay) technology. The extent of peptide phosphorylation was determined by using acceptor beads conjugated to phosphotyrosine antibody that recognized the phosphorylated peptide and donor beads conjugated to streptavidin that binds to the biotin on the peptide. Excitation of the donor beads converted ambient oxygen to excited singlet oxygen which when in close proximity to acceptor beads, reacted with acceptor beads resulting in signal amplification.
(§3) Test inhibitors and controls were prepared in 10% DMSO at 10-fold the desired final concentration and added to each well of a reaction plate (Corning 96-well half-area solid white nonbinding surface plate) in a volume of 2.5 μl. […] The plate was incubated for 120 min at room temperature and the reaction stopped by the addition of 10 μl stop/detection mixture containing 35 mM EDTA, 50 ug/ml AlphaScreen™ Streptavidin Donor beads (final concentration is 500 ng/well) and AlphaScreen™ Phospho-tyrosine (P-Tyr-100) Acceptor beads (final concentration is 500 ng/well) under green light conditions. The plate was incubated overnight at room temperature in the dark and the plates read on the BMG PolarStar Omega ([…], Gain=4000). Data were archived and analyzed with a 4-parameter fit to generate IC50 values using the CDD Vault from Collaborative Drug Discovery.

Experiment [2] has as its target full-length activated BTK mutant C481S (Homo sapiens (Human), UniProt Q06187, C481S). Put plainly: AlphaScreen assay, BTK mutant C481S. It counts as biochemical. The note with it: for inhibition at 10 µM: read-out: BTK-C481S % @ 10 uM, @ 10 uM. As to the method: as §1, §2, §3
Background: Bead proximity is the source of the signal in Alpha formats.

The structures appear in SMILES notation. pIC50: −log10 of the molar value.

Chain of full-length activated BTK mutant C481S (Q06187 whole entry C481S): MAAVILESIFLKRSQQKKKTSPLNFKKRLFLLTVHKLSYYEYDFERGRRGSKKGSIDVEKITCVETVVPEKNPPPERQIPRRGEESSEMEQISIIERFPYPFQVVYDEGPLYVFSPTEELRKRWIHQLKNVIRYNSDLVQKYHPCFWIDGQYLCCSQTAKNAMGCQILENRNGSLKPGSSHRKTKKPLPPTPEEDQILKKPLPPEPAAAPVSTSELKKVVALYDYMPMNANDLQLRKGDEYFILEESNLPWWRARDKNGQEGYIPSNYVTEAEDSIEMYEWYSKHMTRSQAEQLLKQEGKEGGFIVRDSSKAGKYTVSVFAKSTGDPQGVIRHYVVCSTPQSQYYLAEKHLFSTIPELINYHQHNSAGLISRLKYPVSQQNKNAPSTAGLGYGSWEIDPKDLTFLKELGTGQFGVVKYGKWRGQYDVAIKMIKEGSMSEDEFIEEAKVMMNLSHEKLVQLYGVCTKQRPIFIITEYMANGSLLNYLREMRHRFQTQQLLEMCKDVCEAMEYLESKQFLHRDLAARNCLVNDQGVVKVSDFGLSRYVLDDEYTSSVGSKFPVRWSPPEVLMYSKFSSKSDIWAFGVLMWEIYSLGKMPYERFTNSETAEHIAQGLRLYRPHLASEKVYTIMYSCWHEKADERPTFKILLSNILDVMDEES
Chain of full-length activated BTK (wildtype) (Q06187 whole entry): as the sequence (Q06187 whole entry C481S) above, with S481C counted along it

In the case of `O=C(Cc1ccccc1)Nc1ccc(C(=O)c2c[nH]c3ncnc(N[C@@H]4CC[C@@H](CO)OC4)c23)c(Cl)c1` [Compound I-639, N-(3-chloro-4-(4-(((3R,6S)-6-(hydroxymethyl)tetrahydro-2H-pyran-3-yl)amino)-7H-pyrrolo[2,3-d]pyrimidine-5-carbonyl)phenyl)-2-phenylacetamide], the values for the pIC50 in experiment [1] and in experiment [2] were 7.85 and 7.59, respectively.

In the case of `O=C(Nc1ccc(Cl)c(C(=O)c2c[nH]c3ncnc(N[C@@H]4CC[C@@H](CO)OC4)c23)c1)c1nccc2ccccc12` [Compound I-607, N-(4-chloro-3-(4-(((3R,6S)-6-(hydroxymethyl)tetrahydro-2H-pyran-3-yl)amino)-7H-pyrrolo[2,3-d]pyrimidine-5-carbonyl)phenyl)isoquinoline-1-carboxamide], the pIC50 in experiment [1] was 7.86; in experiment [2], 6.67.

On to `COCCOc1ccc(Cl)c(C(=O)c2c[nH]c3ncnc(N[C@@H]4CC[C@@H](CO)OC4)c23)c1` [Compound I-648, (2-chloro-5-(2-methoxyethoxy)phenyl)(4-(((3R,6S)-6-(hydroxymethyl)tetrahydro-2H-pyran-3-yl)amino)-7H-pyrrolo[2,3-d]pyrimidin-5-yl)methanone], for which the pIC50 was 6.14 in experiment [1] and 6.09 in experiment [2].

Regarding `O=C(c1ccc(Oc2ccccc2)cc1Cl)c1c[nH]c2ncnc(NC[C@H]3CN[C@H](CO)C3)c12` [Compound I-369e, (2-chloro-4-phenoxyphenyl)(4-((((3R,5S)-5-(hydroxymethyl)pyrrolidin-3-yl)methyl)amino)-7H-pyrrolo[2,3-d]pyrimidin-5-yl)methanone], the results for the pIC50 in experiment [1] and in experiment [2] were 7.70 and 6.86, respectively.

For `O=C(Nc1ccc(C(=O)c2c[nH]c3ncnc(N[C@@H]4CC[C@@H](CO)OC4)c23)c(Cl)c1)c1ccccc1` [Compound I-276, N-(3-chloro-4-(4-(((3R,6S)-6-(hydroxymethyl)tetrahydro-2H-pyran-3-yl)amino)-7H-pyrrolo[2,3-d]pyrimidine-5-carbonyl)phenyl)benzamide], the pIC50 in experiment [1] is 7.75; in experiment [2], 7.24.

Turning to `O=C(c1ccc(N2CC3(COC3)C2)cc1Cl)c1c[nH]c2ncnc(N[C@@H]3CC[C@@H](CO)OC3)c12` [Compound I-647, (2-chloro-4-(2-oxa-6-azaspiro[3.3]heptan-6-yl)phenyl)(4-(((3R,6S)-6-(hydroxymethyl)tetrahydro-2H-pyran-3-yl)amino)-7H-pyrrolo[2,3-d]pyrimidin-5-yl)methanone], the results for the pIC50 in experiment [1] and in experiment [2] were 5.84 and 6.97, respectively.

Turning to `COc1ccccc1C(=O)NCc1ccc(C(=O)c2c[nH]c3ncnc(N[C@@H]4CC[C@@H](CO)OC4)c23)cc1` [Compound I-652, N-(4-(4-(((3R,6S)-6-(hydroxymethyl)tetrahydro-2H-pyran-3-yl)amino)-7H-pyrrolo[2,3-d]pyrimidine-5-carbonyl)benzyl)-2-methoxybenzamide], the negative logarithm of the IC50 (pIC50) is 6.75 in experiment [1] and 6.30 in experiment [2].

As for `O=C(c1ccc(NC(=O)C2(c3ccccc3)CC2)cc1Cl)c1c[nH]c2ncnc(N[C@@H]3CC[C@@H](CO)OC3)c12` [Compound I-640, N-(3-chloro-4-(4-(((3R,6S)-6-(hydroxymethyl)tetrahydro-2H-pyran-3-yl)amino)-7H-pyrrolo[2,3-d]pyrimidine-5-carbonyl)phenyl)-1-phenylcyclopropane-1-carboxamide], the pIC50 was 7.16 in experiment [1] and 6.69 in experiment [2].

With `CC(=O)N1CC(Nc2ncnc3[nH]cc(C(=O)c4ccc(Oc5ccccc5)cc4Cl)c23)CCC1CO` (racemic) [Compound I-654, rac-1-(5-((5-(2-chloro-4-phenoxybenzoyl)-7H-pyrrolo[2,3-d]pyrimidin-4-yl)amino)-2-(hydroxymethyl)-piperidin-1-yl)ethan-1-one], the pIC50 in experiment [1] is 8.18; in experiment [2], 7.68.

In the case of `O=C(c1ccc(N2CCOCC2)cc1Cl)c1c[nH]c2ncnc(N[C@@H]3CC[C@@H](CO)OC3)c12` [Compound I-311i, (2-chloro-4-morpholinophenyl)(4-(((3R,6S)-6-(hydroxymethyl)tetrahydro-2H-pyran-3-yl)amino)-7H-pyrrolo[2,3-d]pyrimidin-5-yl)methanone], the pIC50 in experiment [1] was 6.06. Moreover, the inhibition at 10 µM in experiment [2] was 81%.

As to `O=C(c1ccc(C(=O)N2CCN(c3ccccn3)CC2)cc1Cl)c1c[nH]c2ncnc(N[C@@H]3CC[C@@H](CO)OC3)c12` [Compound I-616, (3-chloro-4-(4-(((3R,6S)-6-(hydroxymethyl)tetrahydro-2H-pyran-3-yl)amino)-7H-pyrrolo[2,3-d]pyrimidine-5-carbonyl)phenyl)(4-(pyridin-2-yl)piperazin-1-yl)methanone], the pIC50 was 6.94 in experiment [1] and 6.30 in experiment [2].

Take `O=C(c1ccc(Oc2ccccc2)cc1Cl)c1c[nH]c2ncnc(NC[C@@H]3C[C@@H](CO)N(Cc4ccccc4)C3)c12` [Compound I-657, (4-((((3S,5S)-1-benzyl-5-(hydroxymethyl)pyrrolidin-3-yl)methyl)amino)-7H-pyrrolo[2,3-d]pyrimidin-5-yl)(2-chloro-4-phenoxyphenyl)methanone]: the negative logarithm of the IC50 (pIC50) in experiment [1] was 6.63; in experiment [2] it was 6.08.

For the compound `COCCNC(=O)c1cccc(C(=O)c2c[nH]c3ncnc(N[C@@H]4CC[C@@H](CO)OC4)c23)c1` [Compound I-637, 3-(4-(((3R,6S)-6-(hydroxymethyl)tetrahydro-2H-pyran-3-yl)amino)-7H-pyrrolo[2,3-d]pyrimidine-5-carbonyl)-N-(2-methoxyethyl)benzamide], the results for the inhibition at 10 µM in experiment [1] and in experiment [2] were 76% and 55%, respectively.

`COCCNC(=O)c1ccc(Cl)c(C(=O)c2c[nH]c3ncnc(N[C@@H]4CC[C@@H](CO)OC4)c23)c1` [Compound I-624, 4-chloro-3-(4-(((3R,6S)-6-(hydroxymethyl)tetrahydro-2H-pyran-3-yl)amino)-7H-pyrrolo[2,3-d]pyrimidine-5-carbonyl)-N-(2-methoxyethyl) benzamide] gave a pIC50 in experiment [1] of 5.92. In addition, the inhibition at 10 µM in experiment [2] came to 53%.

`O=C(NCCN1CCOCC1)c1ccc(C(=O)c2c[nH]c3ncnc(N[C@@H]4CC[C@@H](CO)OC4)c23)c(Cl)c1` [Compound I-613, 3-chloro-4-(4-(((3R,6S)-6-(hydroxymethyl)tetrahydro-2H-pyran-3-yl)amino)-7H-pyrrolo[2,3-d]pyrimidine-5-carbonyl)-N-(2-morpholinoethyl) benzamide]: the inhibition at 10 µM turned out to be 87% in experiment [1] and 64% in experiment [2].

Regarding `O=C(c1cc(C(=O)N2CCCCC2)ccc1Cl)c1c[nH]c2ncnc(N[C@@H]3CC[C@@H](CO)OC3)c12` [Compound I-623, (4-chloro-3-(4-(((3R,6S)-6-(hydroxymethyl)tetrahydro-2H-pyran-3-yl)amino)-7H-pyrrolo[2,3-d]pyrimidine-5-carbonyl)phenyl)(piperidin-1-yl)methanone], the values for the pIC50 in experiment [1] and in experiment [2] were 6.91 and 6.73, respectively.

In the case of `CC(=O)N1C[C@H](Nc2ncnc3[nH]cc(C(=O)c4ccc(Oc5ccccc5)cc4Cl)c23)C[C@H]1CO` [Compound I-655, 1-((2S,4R)-4-((5-(2-chloro-4-phenoxybenzoyl)-7H-pyrrolo[2,3-d]pyrimidin-4-yl)amino)-2-(hydroxymethyl)pyrrolidin-1-yl)ethan-1-one], the negative logarithm of the IC50 (pIC50) is 7.35 in experiment [1] and 7.28 in experiment [2].
